# Results from ChEMBL document CHEMBL6134873, “Identification of Novel Cyclobutane-Based Derivatives as Potent Acetyl-CoA Carboxylase Allosteric Inhibitors for Nonalcoholic Steatohepatitis Drug Discovery” (J Med Chem, 2025).
# Experiments:
# [1] = Protein binding in monkey plasma; assay type: ADME, cell-free, Macaca mulatta; details: rhesus monkey, read-out: PPB (converted)
# [2] = MRT (0 to t) in Sprague-Dawley rat at 1 mg/kg, iv measured for 0.25 to 24 hrs by LC-MS/MS analysis; assay type: ADME, organism-based; details: in vivo, time 0.25-24 hrs
# [3] = Intrinsic clearance in monkey liver microsomes; assay type: ADME, Macaca mulatta, Microsome; details: rhesus monkey, read-out: CLH
# [4] = Intrinsic clearance in rat liver microsomes; assay type: ADME, Microsome; details: read-out: CLH
# [5] = Biodistribution in liver of 12 hr-fasted male wild-type Sprague-Dawley rat at 3 mg/kg, po measured after 4 hrs by LC-MS/MS analysis; assay type: ADME, organism-based; details: in vivo
# [6] = AUC (0 to t) in Sprague-Dawley rat at 3 mg/kg, po measured for 0.25 to 24 hrs by LC-MS/MS analysis; assay type: ADME, organism-based; details: in vivo, time 0.25-24 hrs
# [7] = Mutagenicity in Salmonella typhimurium by mini-Ames test; assay type: toxicity; details: salmonella enterica subsp. enterica serovar typhimurium
# [8] = Stability of compound assessed as compound isomerization by measuring retention time; assay type: physicochemical
# [9] = Half life in Sprague-Dawley rat at 1 mg/kg, iv measured for 0.25 to 24 hrs by LC-MS/MS analysis; assay type: ADME, organism-based; details: in vivo, time 0.25-24 hrs
# [10] = AUC (0 to t) in Sprague-Dawley rat at 1 mg/kg, iv measured for 0.25 to 24 hrs by LC-MS/MS analysis; assay type: ADME, organism-based; details: in vivo, time 0.25-24 hrs
# [11] = Stability of compound assessed as (1S,3s)-3-(1-((R)-2-(2-hydroxyphenyl)-2-((tetrahydro-2H-pyran-4-yl)oxy)ethyl)-5-methyl-6-(oxazol-2-yl)-2,4-dioxo-1,4-dihydrothieno[2,3-d]pyrimidin-3(2H)-yl)-1-methylcyclobutane-1-carboxylic acid metabolite formation by measuring retention time; assay type: ADME
# Cytochrome P450 2D6 = Cytochrome P450 2D6 (Homo sapiens, UniProt P10635); assay: Inhibition of CYP2D6 (unknown origin); assay type: ADME
# in vivo [12] = details: Sprague-Dawley, rat, plasma, po, 3 mg/kg
# Description: Drug concentration in plasma of Sprague-Dawley rat at 3 mg/kg, po measured after 4 hrs by LC-MS/MS analysis
# [13] = Intrinsic clearance in mouse liver microsomes; assay type: ADME, Microsome; details: read-out: CLH
# [14] = Stability of compound assessed as remaining parent compound by measuring retention time; assay type: physicochemical
# Acetyl-CoA carboxylase 2 = Acetyl-CoA carboxylase 2 (Homo sapiens, UniProt O00763)
# Description: Inhibition of recombinant human ACC2 using acetyl-Co A as substrate incubated for 60 mins in presence of ATP by ADP-Glo assay
# in vivo [15] = details: Sprague-Dawley, rat, liver, po, 3 mg/kg
# Description: Drug concentration in liver of Sprague-Dawley rat at 3 mg/kg, po measured after 4 hrs by LC-MS/MS analysis
# [16] = Tmax in Sprague-Dawley rat at 3 mg/kg, po measured for 0.25 to 24 hrs by LC-MS/MS analysis; assay type: ADME, organism-based; details: in vivo, time 0.25-24 hrs
# [17] = Toxicity in Sprague-Dawley rat model of DEN-induced liver fibrosis assessed as body weight loss at 3 to 10 mg/kg, po qd treated for 4 weeks; assay type: organism-based; details: in vivo, 672 h, dose 3-10 mg/kg
# [18] = Oral bioavailability in Sprague-Dawley rat at 3 mg/kg measured for 0.25 to 24 hrs by LC-MS/MS analysis; assay type: ADME, organism-based; details: in vivo, time 0.25-24 hrs
# [19] = Stability of compound assessed as (1S,3s)-3-(6-carbamoyl-1-((R)-2-(2-methoxyphenyl)-2-((tetrahydro-2H-pyran-4-yl)oxy)ethyl)-5-methyl-2,4-dioxo-1,4-dihydrothieno[2,3-d]pyrimidin-3(2H)-y l)-1-methylcyclobutane-1-carboxylic acid metabolite formation by measuring retention time; assay type: ADME
# [20] = Inhibition of fatty acid synthesis in human HepG2 cells preincubated for 1.5 hrs followed by [14C] acetate addition measured after 1.5 hrs by liquid scintillation counter analysis; assay type: functional, cell-based
# [21] = Clearance in Sprague-Dawley rat at 1 mg/kg, iv measured for 0.25 to 24 hrs by LC-MS/MS analysis; assay type: ADME, organism-based; details: in vivo, time 0.25-24 hrs
# in vivo [22] = details: Sprague-Dawley, rat, plasma, po, 3 mg/kg; remark: listed apart in the source
# Description: Drug concentration in plasma of Sprague-Dawley rat at 3 mg/kg, po measured after 0.25 hrs by LC-MS/MS analysis
# [23] = Toxicity in Sprague-Dawley rat model of DEN-induced liver fibrosis assessed as animal mortality at 3 to 10 mg/kg, po qd treated for 4 weeks; assay type: organism-based; details: in vivo, 672 h, dose 3-10 mg/kg
# [24] = Suppression of Col1A1 mRNA expression in TGF-beta1-treated human LX2 cells incubated for 24 hrs by qPCR analysis; assay type: functional, cell-based; details: LX-2, 24 h
# [25] = Half life in Sprague-Dawley rat at 3 mg/kg, po measured for 0.25 to 24 hrs by LC-MS/MS analysis; assay type: ADME, organism-based; details: in vivo, time 0.25-24 hrs
# [26] = Intrinsic clearance in human liver microsomes; assay type: ADME, Microsome; details: read-out: CLH
# Cytochrome P450 2C8 = target: T1, Cytochrome P450 2C8 (Homo sapiens, UniProt P10632); assay: Inhibition of CYP2C8 (unknown origin); assay type: ADME
# T1 sequence (P10632 whole entry): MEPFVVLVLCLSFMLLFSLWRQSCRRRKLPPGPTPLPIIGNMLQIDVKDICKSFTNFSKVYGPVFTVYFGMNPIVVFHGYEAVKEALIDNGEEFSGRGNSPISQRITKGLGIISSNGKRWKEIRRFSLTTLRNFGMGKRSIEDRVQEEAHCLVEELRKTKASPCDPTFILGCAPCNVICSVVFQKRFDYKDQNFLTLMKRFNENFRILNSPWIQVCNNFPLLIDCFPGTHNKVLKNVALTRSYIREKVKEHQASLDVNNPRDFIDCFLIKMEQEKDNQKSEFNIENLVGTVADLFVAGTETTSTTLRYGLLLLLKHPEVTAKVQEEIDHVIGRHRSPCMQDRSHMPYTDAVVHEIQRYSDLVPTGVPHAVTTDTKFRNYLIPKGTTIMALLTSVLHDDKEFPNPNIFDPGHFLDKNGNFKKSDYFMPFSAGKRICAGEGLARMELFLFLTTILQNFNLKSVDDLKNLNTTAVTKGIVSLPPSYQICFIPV
# Cytochrome P450 2B6 = target: T2, Cytochrome P450 2B6 (Homo sapiens, UniProt P20813); assay: Inhibition of CYP2B6 (unknown origin); assay type: ADME
# T2 sequence (P20813 whole entry): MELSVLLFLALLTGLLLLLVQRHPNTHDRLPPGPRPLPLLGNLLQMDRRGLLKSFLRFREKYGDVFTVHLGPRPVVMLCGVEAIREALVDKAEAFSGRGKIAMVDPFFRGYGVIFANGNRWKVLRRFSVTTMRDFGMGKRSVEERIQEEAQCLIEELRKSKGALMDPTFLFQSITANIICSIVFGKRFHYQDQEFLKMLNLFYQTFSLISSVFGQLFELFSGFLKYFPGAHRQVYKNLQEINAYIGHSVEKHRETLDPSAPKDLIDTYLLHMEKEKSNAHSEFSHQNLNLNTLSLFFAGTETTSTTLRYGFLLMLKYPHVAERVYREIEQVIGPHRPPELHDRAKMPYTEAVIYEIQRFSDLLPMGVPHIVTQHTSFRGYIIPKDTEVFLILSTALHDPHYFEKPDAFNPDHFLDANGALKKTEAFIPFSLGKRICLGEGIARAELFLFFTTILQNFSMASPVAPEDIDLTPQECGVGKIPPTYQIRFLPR
# [27] = Protein binding in dog plasma; assay type: ADME, cell-free, Canis lupus familiaris; details: read-out: PPB (converted)
# in vivo [28] = details: Sprague-Dawley, rat, liver, po, 3 mg/kg; remark: listed apart in the source
# Description: Drug concentration in liver of Sprague-Dawley rat at 3 mg/kg, po measured after 0.25 hrs by LC-MS/MS analysis
# [29] = target: Voltage-gated inwardly rectifying potassium channel KCNH2 (Homo sapiens, UniProt Q12809); assay: Inhibition of hERG; assay type: toxicity
# Chain of Voltage-gated inwardly rectifying potassium channel KCNH2 (Q12809 whole entry): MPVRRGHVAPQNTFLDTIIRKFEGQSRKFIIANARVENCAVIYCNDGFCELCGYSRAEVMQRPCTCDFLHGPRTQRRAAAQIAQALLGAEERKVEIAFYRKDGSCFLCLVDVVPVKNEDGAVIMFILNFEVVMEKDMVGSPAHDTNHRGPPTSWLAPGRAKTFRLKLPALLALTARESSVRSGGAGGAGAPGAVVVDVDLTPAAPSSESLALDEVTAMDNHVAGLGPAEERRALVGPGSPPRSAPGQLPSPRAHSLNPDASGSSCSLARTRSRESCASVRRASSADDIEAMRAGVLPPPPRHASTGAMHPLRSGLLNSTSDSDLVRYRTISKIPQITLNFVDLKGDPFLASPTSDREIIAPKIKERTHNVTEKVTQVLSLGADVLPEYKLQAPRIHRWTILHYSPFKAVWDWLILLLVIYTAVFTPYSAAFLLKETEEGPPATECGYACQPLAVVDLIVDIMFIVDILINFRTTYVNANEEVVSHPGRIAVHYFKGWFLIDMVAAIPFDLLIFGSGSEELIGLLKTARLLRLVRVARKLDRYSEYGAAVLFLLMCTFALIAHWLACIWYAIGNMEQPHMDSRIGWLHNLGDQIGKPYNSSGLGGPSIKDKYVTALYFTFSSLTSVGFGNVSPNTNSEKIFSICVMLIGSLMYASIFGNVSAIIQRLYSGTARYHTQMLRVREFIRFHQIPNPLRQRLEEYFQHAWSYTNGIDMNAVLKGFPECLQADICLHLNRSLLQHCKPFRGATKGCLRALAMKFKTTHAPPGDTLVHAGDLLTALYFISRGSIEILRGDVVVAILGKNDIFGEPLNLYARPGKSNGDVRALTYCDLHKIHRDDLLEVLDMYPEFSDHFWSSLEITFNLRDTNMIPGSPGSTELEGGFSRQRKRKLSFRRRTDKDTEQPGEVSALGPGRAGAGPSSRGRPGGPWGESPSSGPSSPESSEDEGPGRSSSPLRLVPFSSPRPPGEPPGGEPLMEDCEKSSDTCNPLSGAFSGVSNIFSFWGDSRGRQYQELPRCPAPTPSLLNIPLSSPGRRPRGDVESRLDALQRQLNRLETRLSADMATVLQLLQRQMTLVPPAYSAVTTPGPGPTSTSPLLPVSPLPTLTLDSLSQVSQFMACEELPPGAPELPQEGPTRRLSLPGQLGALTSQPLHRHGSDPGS
# Chain of Acetyl-CoA carboxylase 2 (O00763 whole entry): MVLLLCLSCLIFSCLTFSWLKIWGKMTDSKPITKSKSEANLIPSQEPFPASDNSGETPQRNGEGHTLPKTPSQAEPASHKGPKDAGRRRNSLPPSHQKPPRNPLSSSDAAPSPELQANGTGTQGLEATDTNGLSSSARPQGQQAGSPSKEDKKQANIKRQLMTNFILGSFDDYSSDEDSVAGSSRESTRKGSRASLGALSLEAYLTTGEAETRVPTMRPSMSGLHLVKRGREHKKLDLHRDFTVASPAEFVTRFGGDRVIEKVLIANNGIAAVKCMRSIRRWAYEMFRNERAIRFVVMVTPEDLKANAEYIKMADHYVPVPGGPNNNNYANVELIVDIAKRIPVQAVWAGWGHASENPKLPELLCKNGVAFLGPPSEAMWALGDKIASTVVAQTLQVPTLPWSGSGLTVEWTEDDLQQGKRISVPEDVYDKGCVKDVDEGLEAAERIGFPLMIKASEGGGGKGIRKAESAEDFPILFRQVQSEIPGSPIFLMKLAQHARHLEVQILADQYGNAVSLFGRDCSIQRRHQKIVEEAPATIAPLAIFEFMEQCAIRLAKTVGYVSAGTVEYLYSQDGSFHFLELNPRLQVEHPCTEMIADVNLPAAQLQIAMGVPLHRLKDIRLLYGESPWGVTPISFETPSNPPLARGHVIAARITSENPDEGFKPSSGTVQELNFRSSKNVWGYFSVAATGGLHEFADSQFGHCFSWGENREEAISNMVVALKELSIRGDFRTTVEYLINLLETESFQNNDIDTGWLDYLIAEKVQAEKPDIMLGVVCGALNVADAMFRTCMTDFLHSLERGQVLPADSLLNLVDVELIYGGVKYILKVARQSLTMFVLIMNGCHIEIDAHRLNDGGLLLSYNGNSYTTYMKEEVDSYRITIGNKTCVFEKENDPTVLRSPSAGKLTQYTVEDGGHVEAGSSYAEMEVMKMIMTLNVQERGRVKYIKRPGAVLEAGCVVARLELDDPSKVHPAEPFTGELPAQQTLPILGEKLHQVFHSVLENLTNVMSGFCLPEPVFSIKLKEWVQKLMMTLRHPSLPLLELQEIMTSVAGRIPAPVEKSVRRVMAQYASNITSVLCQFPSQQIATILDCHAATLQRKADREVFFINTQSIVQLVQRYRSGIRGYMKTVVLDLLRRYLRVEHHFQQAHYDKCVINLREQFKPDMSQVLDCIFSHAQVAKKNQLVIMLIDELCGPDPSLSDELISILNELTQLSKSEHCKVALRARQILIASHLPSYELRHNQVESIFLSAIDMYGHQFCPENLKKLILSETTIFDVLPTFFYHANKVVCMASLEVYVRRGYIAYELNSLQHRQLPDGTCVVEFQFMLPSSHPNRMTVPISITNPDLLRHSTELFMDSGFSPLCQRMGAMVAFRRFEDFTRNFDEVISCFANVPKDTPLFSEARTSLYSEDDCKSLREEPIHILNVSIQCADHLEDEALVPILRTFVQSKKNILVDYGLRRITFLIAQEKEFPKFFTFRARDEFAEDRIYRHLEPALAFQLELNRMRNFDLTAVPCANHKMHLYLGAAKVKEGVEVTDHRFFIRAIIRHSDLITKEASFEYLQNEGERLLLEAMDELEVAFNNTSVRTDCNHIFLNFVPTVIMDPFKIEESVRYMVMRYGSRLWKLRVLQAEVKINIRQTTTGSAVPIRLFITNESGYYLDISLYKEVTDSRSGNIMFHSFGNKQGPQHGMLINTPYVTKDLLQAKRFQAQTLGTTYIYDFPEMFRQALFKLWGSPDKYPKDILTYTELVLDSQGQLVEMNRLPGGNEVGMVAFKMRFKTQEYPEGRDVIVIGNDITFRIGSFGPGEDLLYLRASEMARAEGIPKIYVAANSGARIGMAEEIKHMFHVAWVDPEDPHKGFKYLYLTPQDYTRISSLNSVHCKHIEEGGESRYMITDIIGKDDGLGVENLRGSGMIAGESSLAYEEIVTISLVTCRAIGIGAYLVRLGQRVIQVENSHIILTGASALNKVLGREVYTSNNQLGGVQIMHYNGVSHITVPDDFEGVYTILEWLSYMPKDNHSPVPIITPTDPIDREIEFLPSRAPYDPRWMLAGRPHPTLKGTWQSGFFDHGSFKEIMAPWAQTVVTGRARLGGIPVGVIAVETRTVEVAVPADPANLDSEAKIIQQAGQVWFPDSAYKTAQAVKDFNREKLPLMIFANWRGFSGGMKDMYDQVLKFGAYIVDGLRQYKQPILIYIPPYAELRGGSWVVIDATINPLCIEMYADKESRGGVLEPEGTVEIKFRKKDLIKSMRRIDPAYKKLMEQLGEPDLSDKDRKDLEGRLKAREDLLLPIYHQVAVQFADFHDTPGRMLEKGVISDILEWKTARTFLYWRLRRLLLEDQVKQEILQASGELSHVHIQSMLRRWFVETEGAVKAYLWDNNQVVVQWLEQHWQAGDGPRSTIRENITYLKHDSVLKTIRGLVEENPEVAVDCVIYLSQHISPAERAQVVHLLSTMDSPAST
# Chain of Cytochrome P450 2D6 (P10635 whole entry): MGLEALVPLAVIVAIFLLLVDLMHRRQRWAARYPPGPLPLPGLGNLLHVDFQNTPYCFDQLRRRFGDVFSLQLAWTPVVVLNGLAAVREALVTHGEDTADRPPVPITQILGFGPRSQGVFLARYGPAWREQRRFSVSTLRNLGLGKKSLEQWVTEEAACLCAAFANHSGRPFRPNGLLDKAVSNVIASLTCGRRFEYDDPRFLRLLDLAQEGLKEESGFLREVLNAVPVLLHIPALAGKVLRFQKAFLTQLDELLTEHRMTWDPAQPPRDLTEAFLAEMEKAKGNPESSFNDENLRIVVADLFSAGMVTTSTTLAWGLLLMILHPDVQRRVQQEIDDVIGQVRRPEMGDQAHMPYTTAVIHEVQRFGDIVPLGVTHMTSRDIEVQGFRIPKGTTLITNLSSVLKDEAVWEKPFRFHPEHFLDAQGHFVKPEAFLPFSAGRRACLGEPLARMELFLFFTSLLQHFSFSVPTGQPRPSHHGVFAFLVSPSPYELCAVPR
smiles,measurement,setting,value
COc1ccccc1[C@H](Cn1c(=O)n([C@H]2C[C@@](C)(C(=O)O)C2)c(=O)c2c(C)c(-c3ncco3)sc21)OC1CCOCC1,fraction unbound,[1],0.043
same,MRT last,[2],18 min
same,CLint scaled,[3],< 13 mL/min/kg
same,CLint scaled,[4],< 17.3 mL/min/kg
same,Drug uptake,[5],Active
same,AUC(0-t),[6],174 ng·h/mL
same,Activity,[7],Non-toxic
same,Retention_time,[8],11.01 min
same,half-life,[9],30 min
same,AUC(0-t),[10],263 ng·h/mL
same,Retention_time,[11],9.36 min
same,IC50,Cytochrome P450 2D6,> 30000 nM
same,concentration at 4 h,in vivo [12],72.8 ng/mL
same,CLint scaled,[13],44.4 mL/min/kg
same,Retention_time,[14],10.61 min
same,IC50,Acetyl-CoA carboxylase 2,3.74 nM
same,concentration at 4 h,in vivo [15],4830 ng/mL
same,Tmax,[16],24 min
same,Activity,[17],Non-toxic
same,bioavailability,[18],22%
same,Retention_time,[19],7.64 min
same,IC50,[20],6.9 nM
same,clearance,[21],63.3 mL/min/kg
same,concentration at 0.25 h,in vivo [22],13.7 ng/mL
same,Activity,[23],Non-toxic
same,IC50,[24],507 nM
same,half-life,[25],198 min
same,CLint scaled,[26],< 8.6 mL/min/kg
same,IC50,Cytochrome P450 2C8,> 30000 nM
same,IC50,Cytochrome P450 2B6,> 30000 nM
same,fraction unbound,[27],0.054
same,concentration at 0.25 h,in vivo [28],3390 ng/mL
same,IC50,[29],> 30000 nM
